One block for each compound: values may come before it.
Legend:
[1] = target: T1, G6sec2 (Homo sapiens, UniProt Q9BYG0); experiment: β1,3-N-acetylglucosaminyltransferase activity using unlabeled oligosaccharides as substrates (HPAE/PAD); assay type: biochemical
T1 construct: made in house; host or cells: Sf21 insect cells infected with pVL1393-F2G6sec2-derived recombinant baculovirus
T1 sequence (Q9BYG0 39-378): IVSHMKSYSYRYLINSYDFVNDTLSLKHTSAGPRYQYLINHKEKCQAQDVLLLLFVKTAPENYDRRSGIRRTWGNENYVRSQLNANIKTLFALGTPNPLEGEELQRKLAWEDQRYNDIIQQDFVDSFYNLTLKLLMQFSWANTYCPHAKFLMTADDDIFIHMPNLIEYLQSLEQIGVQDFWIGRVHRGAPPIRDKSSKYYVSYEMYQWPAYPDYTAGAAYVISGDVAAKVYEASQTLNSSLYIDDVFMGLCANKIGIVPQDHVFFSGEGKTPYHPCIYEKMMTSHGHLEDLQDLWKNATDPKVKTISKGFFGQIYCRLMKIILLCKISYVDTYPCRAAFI
Experimental: The glycosyltransferase reaction was carried out as follows. The reaction was carried out at 37° C. for 16 hours in 40 μl of an assay solution [50 mmol/l MOPS (pH 7.5), 5 mmol/l UDP-GlcNAc (manufactured by SIGMA), 5 mmol/l MnCl2, 10 mmol/l sugar chain substrate, a purified enzyme solution (G6sec2)]. Next, the mixture was treated at 100° C. for 5 minutes and then centrifuged at 10,000×g for 20 minutes to obtain a supernatant, and a part thereof was analyzed using HPAE/PAD ([…]; manufactured by DIONEX). The method was specifically carried out according to a conventional method [Anal. Biochem., 189, 151-162 (1990), J. Biol. Chem., 273, 433-440 (1998)].
As a purified enzyme (G6sec2), […] of the enzyme obtained in the above (2) was used. As substrates, unlabeled oligosaccharides [lactose (Galβ1-4Glc) and LNnT] were used.
After the reaction on each substrate using an assay solution containing UDP-GlcNAc (saccharide donor) and an assay solution containing no donor, analysis was carried out using HPAE/PAD and peaks appeared only in the assay solution containing UDP-GlcNAc were defined as products. The product was identified using coincidence of its elution time with that of standard sugar chain as the index. As standard sugar chains, GlcNAcβ1-3Galβ1,4Glc and GlcNAcβ1-3Galβ1,4GlcNAcβ1-3Galβ1-4Glc were used.

[2] = target: T1, G6sec2; experiment: β1,3-N-acetylglucosaminyltransferase activity using glycolipids as substrates (purified enzyme); assay type: biochemical; conditions: for conversion efficiency: purified G6sec2 10 μl, 37° C., 16 hours
Experimental: Using glycolipids as the substrate, β1,3-N-acetylglucosaminyltransferase activity of the G6 polypeptide was measured according to known methods [FEBS, 462, 289 (1999), J. Biol. Chem., 269, 14730-14737 (1994), J. Biol. Chem., 267, 23507 (1992), J. Biol. Chem., 267, 2994 (1992)]. Specifically, the reaction was carried out at 37° C. for 16 hours in 20 μl of a reaction solution [150 mmol/l sodium cacodylate (pH 7.2), 10 mmol/l UDP-GlcNAc (manufactured by SIGMA), 480 μmol/l UDP—[^14C]GlcNAc (manufactured by Amersham), 0.4% Triton CF-54, 10 mmol/l MnCl2, […] glycolipid, purified enzyme (G6sec2)]. As the purified enzyme (G6sec2), 10 μl of the enzyme obtained in the above (2) was used. As glycolipids, lactosylceramide, paragloboside, galactosylceramide (Type I) and galactosylceramide (Type II) were used. Paragloboside was obtained from Yasunori Kushi at Tokyo Medical and Dental University. Other glycolipids were purchased from SIGMA. After completion of the reaction, 200 μl of 0.1 mol/l KCl was added and lightly centrifuged to obtain the supernatant. The supernatant was passed through Sep-Pak plus C18 Cartridge (manufactured by Waters) which had been washed once with 10 ml of methanol and equilibrated by washing twice with 10 ml of 0.1 mol/l KCl to adsorb the glycolipid in the supernatant onto the cartridge. After washing the cartridge twice with 10 ml of pure water for HPLC, the adsorbed glycolipid was eluted with 5 ml of methanol. After concentrating the eluate to about 10 μl using a vacuum dryer, the concentrated solution was plotted on a TLC plate (HPTLC plate Silica gel 60: manufactured by MERCK) and developed using a developing solvent comprising a composition of chloroform:methanol:water (containing 0.2% CaCl2)=65:35:8. After the development was carried out to a position 5 mm from the upper end of the TLC plate, the plate was dried and then the radioactivity incorporated into the glycolipid was measured using Bio Image Analyzer BAS 2000 (manufactured by Fuji Photo Film).

[3] = target: T2, G6 polypeptide (Homo sapiens, UniProt Q9BYG0); experiment: β1,3-N-acetylglucosaminyltransferase activity of cell extract of Namalwa cells transfected with pAMo-G6, glycolipid substrates; assay type: biochemical; conditions: for conversion efficiency into the product: 250 μmol/l glycolipid, 37° C., 16 hours
T2 construct: In order to obtain a DNA encoding the full-length G6 polypeptide, PCR was carried out; expressed in transfected cells; Triton X-100 cell extract
T2 sequence (Q9BYG0 1-378): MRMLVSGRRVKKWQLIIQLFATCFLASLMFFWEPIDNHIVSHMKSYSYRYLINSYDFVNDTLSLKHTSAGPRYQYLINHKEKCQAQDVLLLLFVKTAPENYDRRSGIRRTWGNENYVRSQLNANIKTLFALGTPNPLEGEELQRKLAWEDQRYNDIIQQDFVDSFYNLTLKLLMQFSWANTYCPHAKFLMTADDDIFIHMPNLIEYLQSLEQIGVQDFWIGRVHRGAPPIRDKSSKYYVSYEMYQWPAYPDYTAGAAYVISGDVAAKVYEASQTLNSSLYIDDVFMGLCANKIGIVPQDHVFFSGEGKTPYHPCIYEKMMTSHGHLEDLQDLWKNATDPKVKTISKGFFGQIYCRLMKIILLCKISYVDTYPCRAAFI
Experimental: β1,3-N-Acetylglucosaminyltransferase activity of G6 polypeptide was measured by using glycolipids as substrates according to known methods [FEBS, 462, 289 (1999), J. Biol. Chem., 269, 14730-14737 (1994), J. Biol. Chem., 267, 23507 (1992), J. Biol. Chem., 267, 2994 (1992)]. Specifically, the reaction was carried out at 37° C. for 16 hours in 20 μl of reaction solution [150 mmol/l sodium cacodylate (pH 7.2), 10 mmol/l UDP-GlcNAc (manufactured by SIGMA), 480 μmol/l UDP—[^14C]GlcNAc (manufactured by Amersham), 0.4% Triton CF-54, 10 mmol/l MnCl2, 250 μmol/l glycolipid, the cell extract prepared in the above (1) (20 μg as protein)]. As glycolipids, lactosylceramide (manufactured by SIGMA) and paragloboside (obtained from Yasunori Kushi at Tokyo Medical and Dental University) were used. After completion of the reaction, 200 μl of 0.1 mol/l KCl was added and lightly centrifuged to obtain the supernatant. The supernatant was passed through Sep-Pak plus C18 Cartridge (Waters), which had been washed once with 10 ml of methanol and equilibrated twice with 10 ml of 0.1 mol/l KCl, to adsorb the glycolipid in the supernatant onto the cartridge. After washing the cartridge twice with 10 ml of pure water for HPLC, the adsorbed glycolipid was eluted with 5 ml of methanol. After concentrating the eluate to about 10 μl by using a vacuum dryer, the concentrated solution was spotted on a TLC plate (HPTLC plate Silica gel 60: manufactured by MERCK) and developed using a developing solvent comprising a composition of chloroform:methanol:water (containing 0.2% CaCl2)=65:35:8. After the development was carried out to a position 5 mm from the upper end of the TLC plate, the plate was dried and then the radioactivity incorporated into the glycolipid was measured using Bio Image Analyzer BAS 2000 (manufactured by Fuji Photo Film).

[4] = system: pCXN2-G6-transfected HCT-15 cell; experiment: Sugar chain synthesis inhibitors: FACS analysis with OSK28 of poly-N-acetyllactosamine sugar chains; assay type: cell-based, human; conditions: cultured for 5 days
Experimental: The HCT-15 cells transfected with pCXN2-G6 or pCXN2 prepared in the above (2) (each 5×10^6 cells) were washed by using 3 ml of a phosphate buffer PBS (8 g/l NaCl, 0.2 g/l KCl, 1.15 g/l Na2HPO4 (anhydrous) and 0.2 g/l KH2PO4).
The cells (about 1×10^6 cells) described above were put into a microtube (1.5 ml, manufactured by Eppendorf) and the cells were collected by centrifugation (550×g, 7 minutes).
The cells were washed with 0.9 ml of 0.1% sodium azide-containing PBS (A-PBS: 8 g/l NaCl, 0.2 g/l KCl, 1.15 g/l Na2HPO4 (anhydrous), 0.2 g/l KH2PO4 and 0.1% sodium azide), and then the washed cells were suspended in 100 μl of an antibody (OSK28) capable of recognizing a poly-N-acetyllactosamine sugar chain diluted with A-PBS to give a concentration of 10 μg/ml (20 times dilution of the following purified antibody) and allowed to react at 4° C. for 30 minutes in the dark.
After the reaction, the cells are washed twice with 3 ml of A-PBS, suspended in 100 μl of an FITC-labeled anti-human IgM antibody [manufactured by Medical & Biological Laboratories (MBL)] diluted to 10 μg/ml, and then allowed to react at 4° C. for 1 hour. After the reaction, the cells were washed twice with 3 ml of A-PBS, suspended in 200 μl of PBS containing 0.5% p-formaldehyde and then immobilized. The cells were analyzed by using FACS (Epics Elite Flow Cytometer). […]

[5] = target: T3, G6sec1 (Homo sapiens, UniProt Q9BYG0); experiment: GlcNAc β1,3-galactosyltransferase activity measurement; assay type: biochemical; conditions: 2-aminobenzamide-labeled substrate 88 μmol/l; UDP-Gal; 37° C., 16 hours
T3 construct: made in house; host or cells: Sf21 insect cells infected with pVL1393-F2G6sec1-derived recombinant baculovirus
T3 sequence (Q9BYG0 36-378): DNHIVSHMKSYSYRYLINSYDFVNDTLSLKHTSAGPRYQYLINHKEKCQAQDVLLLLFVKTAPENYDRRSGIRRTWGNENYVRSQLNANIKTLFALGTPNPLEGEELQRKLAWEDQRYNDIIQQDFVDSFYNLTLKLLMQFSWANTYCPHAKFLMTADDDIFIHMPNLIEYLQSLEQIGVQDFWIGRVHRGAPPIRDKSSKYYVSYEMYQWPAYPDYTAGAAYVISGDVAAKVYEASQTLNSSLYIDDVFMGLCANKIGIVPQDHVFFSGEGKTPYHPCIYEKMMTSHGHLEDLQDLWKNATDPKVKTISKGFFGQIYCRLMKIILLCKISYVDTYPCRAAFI
Experimental: (§1) The β1,3-galactosyltransferase activity measurement was carried out according to a conventional method [J. Biol. Chem., 274, 12499-12507 (1999)]. The reaction was carried out at 37° C. for 16 hours in 20 μl of an assay solution [14 mmol/l HEPES (pH 7.4), 75 μmol/l UDP-Gal (manufactured by SIGMA), 11 mmol/l MnCl2, 88 μmol/l sugar chain substrate, the above purified enzyme]. The amount of the enzyme used was the same as the amount used in the measurement of β1,3-N-acetylglucosaminyltransferase. As a substrate, 2-aminobenzamide-labeled GlcNAcβ1-3Galβ1-4GlcNAcβ1-3Galβ1-4GlcNAc (hereinafter referred to as “GlcNAc-2LN”) was used. The sugar chain was prepared by treating 2-aminobenzamide-labeled LN3 with β-galactosidase and thereby removing the terminal galactose residue. Specifically, 100 milli-units of β-galactosidase (manufactured by Seikagaku Corporation) were added to about 60 nmol of 2-aminobenzamide-labeled LN3, the reaction was carried out at 37° C. for 16 hours, and the sugar chain was prepared by inactivating β-galactosidase through its heat treatment at 100° C. for 5 minutes.

[6] = target: T1, G6sec2; experiment: as above; assay type: biochemical; conditions: 2-aminobenzamide-labeled substrate 88 μmol/l; UDP-Gal; 37° C., 16 hours
Experimental: as §1

Compound: CC(=O)N[C@H]1[C@@H](OCc2ccccc2)O[C@H](CO)[C@H](O)[C@@H]1O [benzyl-α-GalNAc]
- reactivity to OSK28 antibody in comparison with absence of inhibitor ([4]; 4 mmol/l): sharply reduced

Compound: O[C@H]1[C@H]2[C@H](O)CCCN2C[C@H]1O [swainsonine]
- reactivity to OSK28 antibody ([4]; 10 μg/ml): reduced

Compound: GlcNAcβ1-3Galβ1-4GlcNAcβ1-3Galβ1-4GlcNAc [GlcNAc-2LN]
- GlcNAc β1,3-galactosyltransferase activity [5]: did not show
- GlcNAc β1,3-galactosyltransferase activity [6]: did not show

The remaining lines, values ahead:

- conversion efficiency into the product ([1]; unlabeled oligosaccharide 10 mmol/l, 37° C., 16 hours): 0.30%
- relative activity, LNnT as substrate defined as 100% ([1]; unlabeled oligosaccharides): 62.5%
Compound: OC[C@H]1O[C@@H](O[C@H]2[C@H](O)[C@@H](O)C(O)O[C@@H]2CO)[C@H](O)[C@@H](O)[C@H]1O (stereo partly shown) [lactose]

- conversion efficiency ([2]; glycolipid substrate): 25.2%
- activity relative to lactosylceramide as substrate defined as 100% ([2]; glycolipid substrates, purified G6sec2): 468%
- conversion efficiency into the product [3]: 0.126%
- activity relative to lactosylceramide as substrate defined as 100% ([3]; glycolipid substrates): 96%
Compound: paragloboside

- β1,3-N-acetylglucosaminyltransferase activity for the glycolipid ([2]; glycolipid substrate, purified G6sec2): did not show activity
Compound: galactosylceramide (Type I)

- conversion efficiency ([2]; glycolipid substrate): 5.39%
- conversion efficiency into the product [3]: 0.125%
Compound: lactosylceramide

From patent US7629150B2, “Transformed cell harboring DNA or RNA encoding sugar chain synthesizing agent having β1,3-N-acetylglucosaminyltransferase activity” (Kyowa Hakko Kirin Co., Ltd., priority 2000, dated 2009)
